For series [1], the system named is Bovine viral diarrhea (BVD) virus. The series can be described thus: Anti-BVDV CPE inhibition assay in MDBK cells. To be noted: for EC50: Bovine viral diarrhea virus isolates and strains, MDBK, in Bos taurus, 96 h; for SI (selectivity index, ratio of CC50 and EC50): CC50/EC50, MDBK cells, BVD virus.
Series [2] can be described thus: Cytotoxicity in MDBK cells (no BVD virus added). To be noted: bovine, MDBK cells (Madin-Darby bovine kidney), no virus added.

With `Fc1ccccc1-c1cc2cn(Cn3nnc4ccccc43)ccc-2n1` [Compound XVII, 1-{[2-(2-fluorophenyl)-5H-pyrrolo[3,2-c]pyridin-5-yl]methyl}-1H-benzotriazole], in series [1], the EC50 was found to be 12 ± 6 nM; the “SI (selectivity index, ratio of CC50 and EC50)” value came to 1583. In series [2], this compound had a cytotoxic concentration (CC50) at 4 days of 19000 nM.
On to `Fc1ccc2nc(Cn3ccc4nc(-c5ccccc5F)nc-4c3)[nH]c2c1` [CPD-37, 5-((6-fluoro-1H-benzo[d]imidazol-2-yl)methyl)-2-(2-fluorophenyl)-5H-imidazo[4,5-c]pyridine], for which, in series [1], the midpoint of the response, the EC50, lay at 370 ± 74 nM; the “SI (selectivity index, ratio of CC50 and EC50)” value was greater than 135. The CC50 at 4 days in series [2] is greater than 50000 nM.
Turning to `Cc1nn(C)c(C)c1-c1nc2ccn(Cc3cc(-c4cc(F)ccc4F)no3)cc-2n1` [CPD-13, 3-(2,5-difluorophenyl)-5-((2-(1,3,5-trimethyl-1H-pyrazol-4-yl)-5H-imidazo[4,5-c]pyridin-5-yl)methyl)isoxazole], in series [1], the midpoint of the response, the EC50, lay at 95 ± 22 nM; the “SI (selectivity index, ratio of CC50 and EC50)” value is greater than 526. In series [2], this compound showed a 50% cytotoxic concentration (CC50) at 4 days greater than 50000 nM.
For `Cc1ccc2sc(Cn3ccc4nc(-c5ccccc5F)nc-4c3)nc2c1` [CPD-23, 2-((2-(2-fluorophenyl)-5H-imidazo[4,5-c]pyridin-5-yl)methyl)-5-methylbenzo[d]thiazole], in series [1], the EC50 is 84 ± 29 nM; the “SI (selectivity index, ratio of CC50 and EC50)” value is greater than 595. In series [2], this compound yielded a CC50 at 4 days greater than 50000 nM.
As for `OCCOc1ccc(F)c(-c2cc3cn(Cn4nnc5ccccc54)ccc-3n2)c1` [Compound XIX, 2-(3-{5-[(1H-benzotriazol-1-yl)methyl]-5H-pyrrolo[3,2-c]pyridin-2-yl}-4-fluorophenoxy)ethan-1-ol], in series [1], the half-maximal effective concentration (EC50) was 97 ± 15 nM; the “SI (selectivity index, ratio of CC50 and EC50)” value is on record as greater than 515. In series [2], this compound displayed a half-maximal cytotoxic concentration (CC50) at 4 days greater than 50000 nM.
Consider `Fc1ccc(F)c(-c2cc(Cn3ccc4nc(-c5ccccc5F)nc-4c3)on2)c1` [CPD-35, 3-(2,5-difluorophenyl)-5-((2-(2-fluorophenyl)-5H-imidazo[4,5-c]pyridin-5-yl)methyl)isoxazole], for which, in series [1], it took 75 ± 24 nM to reach a half-maximal effect (EC50); the “SI (selectivity index, ratio of CC50 and EC50)” value is given as greater than 667. This compound yielded a CC50 at 4 days in series [2] greater than 50000 nM.
Regarding `Cc1ccc2oc(Cn3ccc4nc(-c5ccccc5F)nc-4c3)nc2c1` [CPD-31, 2-((2-(2-fluorophenyl)-5H-imidazo[4,5-c]pyridin-5-yl)methyl)-5-methylbenzo[d]oxazole], in series [1], the EC50 amounted to 306 ± 98 nM; the “SI (selectivity index, ratio of CC50 and EC50)” value was greater than 163. For the same compound, the CC50 at 4 days in series [2] is greater than 50000 nM.
The corresponding values for `COc1ncccc1-c1cc2cn(Cc3nc4ccc(C)cc4[nH]3)ccc-2n1` [Compound XXXIV, 2-((2-(2-methoxypyridin-3-yl)-5H-pyrrolo[3,2-c]pyridin-5-yl)methyl)-6-methyl-1H-benzoimidazole] are 395 ± 20 nM, greater than 127 and greater than 50000 nM.
`Cc1c(-c2nc3ccn(Cc4nc5ccccc5s4)cc-3n2)cnn1C` [CPD-3, 2-((2-(1,5-dimethyl-1H-pyrazol-4-yl)-5H-imidazo[4,5-c]pyridin-5-yl)methyl)benzo[d]thiazole]: in series [1], the EC50 was 78 ± 5 nM; the “SI (selectivity index, ratio of CC50 and EC50)” value is recorded as greater than 641. In addition, the CC50 at 4 days in series [2] is greater than 50000 nM.
In the case of `N#Cc1ccc(-c2cc3ccn(Cn4nnc5ccccc54)cc-3n2)cc1` [Compound VI, 4-{6-[(1H-benzotriazol-1-yl)methyl]-6H-pyrrolo[2,3-c]pyridin-2-yl}benzonitrile], in series [1], the response was half-maximal at 16 nM (EC50); the “SI (selectivity index, ratio of CC50 and EC50)” value is given as greater than 3125. For the same compound, the half-maximal cytotoxic concentration (CC50) at 4 days in series [2] is greater than 50000 nM.
For `Cc1c(-c2nc3ccn(Cc4nc5ccc(Cl)cc5s4)cc-3n2)cnn1C` [CPD-5, 6-chloro-2-((2-(1,5-dimethyl-1H-pyrazol-4-yl)-5H-imidazo[4,5-c]pyridin-5-yl)methyl)benzo[d]thiazole] the same measures were 27 ± 27 nM, greater than 1852 and greater than 50000 nM.
For `Fc1cccc(-c2nc3ccn(Cc4cc(-c5cc(F)ccc5F)no4)cc-3n2)c1` [CPD-39, 3-(2,5-difluorophenyl)-5-((2-(3-fluorophenyl)-5H-imidazo[4,5-c]pyridin-5-yl)methyl)isoxazole] the same measures were 84 ± 8 nM, greater than 595 and greater than 50000 nM.
Consider `Cc1ccc2nc(Cn3ccc4nc(-c5ccccc5F)nc-4c3)[nH]c2c1` [CPD-36, 2-(2-fluorophenyl)-5-((6-methyl-1H-benzo[d]imidazol-2-yl)methyl)-5H-imidazo[4,5-c]pyridine], for which, in series [1], a half-maximal effect (EC50) was put at 403 ± 129 nM; the “SI (selectivity index, ratio of CC50 and EC50)” value is given as greater than 124. Further, in series [2], the CC50 at 4 days was greater than 50000 nM.
`Cc1ccc2nc(Cn3ccc4nc(-c5ccccc5OC(F)F)nc-4c3)sc2c1` [CPD-21, 2-((2-(2-(difluoromethoxy)phenyl)-5H-imidazo[4,5-c]pyridin-5-yl)methyl)-6-methylbenzo[d]thiazole]: in series [1], a half-maximal response (EC50) required 409 nM; the “SI (selectivity index, ratio of CC50 and EC50)” value is listed as 76. The compound also returned a CC50 at 4 days in series [2] of 31000 nM.
`Cc1ccc2nc(Cn3ccc4cc(-c5cc(OCCO)ccc5F)nc-4c3)sc2c1` [Compound XII, 2-(4-fluoro-3-(6-((6-methyl-1,3-benzothiazol-2-yl)methyl)-6H-pyrrolo[2,3-c]pyridin-2-yl)phenoxy)ethan-1-ol]: in series [1], the EC50 came out at 20 ± 7 nM; the “SI (selectivity index, ratio of CC50 and EC50)” value turned out to be 250. This compound came in with a CC50 at 4 days in series [2] of 5000 nM.
For `Cc1ccc2oc(Cn3ccc4nc(-c5cnn(C)c5C)nc-4c3)nc2c1` [CPD-8, 2-((2-(1,5-dimethyl-1H-pyrazol-4-yl)-5H-imidazo[4,5-c]pyridin-5-yl)methyl)-5-methylbenzo[d]oxazole] the same measures were 79 ± 4 nM, greater than 633 and greater than 50000 nM.
The corresponding values for `Cc1c(-c2nc3ccn(Cc4nc5cc(Cl)ccc5s4)cc-3n2)cnn1C` [CPD-4, 5-chloro-2-((2-(1,5-dimethyl-1H-pyrazol-4-yl)-5H-imidazo[4,5-c]pyridin-5-yl)methyl)benzo[d]thiazole] are 84 ± 3 nM, greater than 595 and greater than 50000 nM.
As for `Cc1ccc2nc(Cn3ccc4nc(-c5ccccc5CO)cc-4c3)sc2c1` [Compound XXX, (2-{5-[(6-methyl-1,3-benzothiazol-2-yl)methyl]-5H-pyrrolo[3,2-c]pyridin-2-yl}phenyl)methanol], in series [1], the half-maximal effective concentration (EC50) turned out to be 19 ± 7 nM; the “SI (selectivity index, ratio of CC50 and EC50)” value was 1053. In addition, in series [2], the CC50 at 4 days is 20000 nM.
In the case of `Fc1ccccc1-c1nc2ccn(Cc3ccc(Cl)s3)cc-2n1` [CPD-30, 5-((5-chlorothiophen-2-yl)methyl)-2-(2-fluorophenyl)-5H-imidazo[4,5-c]pyridine], in series [1], the EC50 turned out to be 129 ± 61 nM; the “SI (selectivity index, ratio of CC50 and EC50)” value is recorded as greater than 388. Besides, the CC50 at 4 days in series [2] was greater than 50000 nM.
The corresponding values for `Cc1ccc2nc(Cn3ccc4nc(-c5ccccc5F)nc-4c3)oc2c1` [CPD-32, 2-((2-(2-fluorophenyl)-5H-imidazo[4,5-c]pyridin-5-yl)methyl)-6-methylbenzo[d]oxazole] are 377 ± 16 nM, greater than 133 and greater than 50000 nM.
With `N#Cc1ccc(-c2nc3ccn(Cc4cc(-c5cc(F)ccc5F)no4)cc-3n2)cc1` [CPD-43, 4-(5-((3-(2,5-difluorophenyl)isoxazol-5-yl)methyl)-5H-imidazo[4,5-c]pyridin-2-yl)benzonitrile], in series [1], the concentration for a half-maximal effect (EC50) came to 81 ± 8 nM; the “SI (selectivity index, ratio of CC50 and EC50)” value is reported as greater than 617. Further, in series [2], the CC50 at 4 days is greater than 50000 nM.
On to `Cc1ccc2nc(Cn3ccc4nc(-c5ccccc5CO)cc-4c3)[nH]c2c1` [XXXIII, [2-[5-[(6-methyl-1H-benzimidazol-2-yl)methyl]pyrrolo[3,2-c]pyridin-2-yl]phenyl]methanol], for which, in series [1], the EC50 is 1900 ± 102 nM; the “SI (selectivity index, ratio of CC50 and EC50)” value is greater than 26. The CC50 at 4 days in series [2] is greater than 50000 nM.
`COc1ncccc1-c1nc2ccn(Cc3nc4cc(C)ccc4s3)cc-2n1` [CPD-15, 2-((2-(2-methoxypyridin-3-yl)-5H-imidazo[4,5-c]pyridin-5-yl)methyl)-5-methylbenzo[d]thiazole]: in series [1], it took 86 ± 4 nM to reach a half-maximal effect (EC50); the “SI (selectivity index, ratio of CC50 and EC50)” value is recorded as greater than 581. In series [2], this compound displayed a 50% cytotoxic concentration (CC50) at 4 days greater than 50000 nM.
For `Cc1ccc2nc(Cn3ccc4cc(-c5ccccc5F)nc-4c3)sc2c1` [Compound XI, 2-{[2-(2-fluorophenyl)-6H-pyrrolo[2,3-c]pyridin-6-yl]methyl}-6-methyl-1,3-benzothiazole], in series [1], the concentration for a half-maximal effect (EC50) turned out to be 8 nM; the “SI (selectivity index, ratio of CC50 and EC50)” value is reported as 500. This compound came in with a CC50 at 4 days in series [2] of 4000 nM.
The corresponding values for `COc1ccccc1-c1nc2ccn(Cc3cc(-c4cc(F)ccc4F)no3)cc-2n1` [CPD-19, 3-(2,5-difluorophenyl)-5-((2-(2-methoxyphenyl)-5H-imidazo[4,5-c]pyridin-5-yl)methyl)isoxazole] are 4 ± 1 nM, 4750 and 19000 nM.
As for `Fc1ccc(OC(F)(F)F)cc1-c1cc2ccn(Cn3nnc4ccccc43)cc-2n1` [Compound II, 1-({2-[2-fluoro-5-(trifluoromethoxy)phenyl]-6H-pyrrolo[2,3-c]pyridin-6-yl}methyl)-1H-benzotriazole], in series [1], a half-maximal response (EC50) required 23 nM; the “SI (selectivity index, ratio of CC50 and EC50)” value stood at 870. In series [2], the CC50 at 4 days was determined as 20000 nM.
As to `OCc1ccccc1-c1nc2ccn(Cc3cc(-c4cc(F)ccc4F)no3)cc-2n1` [CPD-46, (2-(5-((3-(2,5-difluorophenyl)isoxazol-5-yl)methyl)-5H-imidazo[4,5-c]pyridin-2-yl)phenyl)methanol], in series [1], the EC50 worked out at 465 ± 26 nM; the “SI (selectivity index, ratio of CC50 and EC50)” value is listed as greater than 108. In addition, the CC50 at 4 days in series [2] is greater than 50000 nM.

One may read the EC50 as the concentration needed to bring the measured effect to its halfway point. A low value points to higher potency in that assay. In general, CC50 refers to the concentration giving 50% cytotoxicity. Higher therefore signals lower toxicity to the cells.

The values are drawn from patent US12577242B2, “Pyrrolopyridine and imidazopyridine antiviral compounds” (KATHOLIEKE UNIVERSITEIT LEUVEN, priority 2020, dated 2026).
